Test results as given in US12715851B2, “4′-substituted analogues of fisetin and their use in the treatment of cancer” (Stellenbosch University, priority 2020, dated 2026).
Entries after “also recorded” stand apart in the source; their conditions may differ.

Legend:
[1] = system: B(a)P-induced lung carcinogenesis; assay: B(a)P-induced lung carcinogenesis, Initiation and Promotion Protocols; assay type: in vivo, Swiss albino mice
Source text: To assess whether Fisetin and its 4-bromo-Fisetin analogue (Fisetin analogue 3c) have anticarcinogenesis activity and if any toxicity in terms of water and food consumption, and body weight, Benzo[a]pyrene [B(a)P] induced lung carcinogenesis in Swiss albino mice were employed in the study. Along with the antitumor activity of the agents, the body weight, food and water intake in different treatment groups were monitored on regular intervals and analysed.
There were six different treatment groups in the study including, (1) control, (2) B(a)P, (3) Fisetin+B(a)P, (4) Fisetin analogue 3c+B(a)P, (5) B(a)P+Fisetin and (6) B(a)P+Fisetin analogue 3c.
Groups 3 and 4 represent the Initiation Protocol (agents treatment started 1 week before carcinogen treatment and continued 1 week after the last dose of the carcinogen). Groups 5 and 6 represent the Promotion Protocol (agents treatment started after 3 weeks of the carcinogen treatment). The B(a)P was given orally twice a week for 4 weeks at 50 mg/kg body weight dose, whereas Fisetin and Fisetin analogue (3c) were administered orally at 25 mg/kg body weight thrice weekly (see FIG. 9).

[2] = system: lipid peroxidation (MDA formation); assay: Hepatotoxicity: lipid peroxidation assay on microsomal liver fraction (TBARS); assay type: in vivo, swiss albino mice; settings: microsomal liver fraction of treated mice
Protocol: (§1) Hepatotoxicity is considered to be one of the major challenges for drug development schemes. The liver is the primary organ for the metabolism or biotransformation of a given drug. To assess the hepatotoxicity of these compounds, the effects of Fisetin and analogue 3c on various hepatic enzymes was assessed.
(§2) A lipid peroxidation assay was performed on microsomal liver fraction and determined in terms of TBARS formation. […] The modulatory effects of Fisetin and analogue 3c were determined on the specific activities of cytochrome b5 reductase (Cytb5R) and cytochrome P450 reductase (CytP450R), phase I enzyme of xenobiotic metabolism. Fisetin and analogue 3c caused reduction in the specific activity of cytochrome b5 reductase. Fisetin decreased Cytb5R specific activity by 66% whereas analogue 3c (50 mg/kg) caused a 36% reduction in specific activity (FIG. 7F). An increase in specific activity of CytP450R by Fisetin and analogue 3c was observed. Fisetin and analogue 3c (50 mg/kg) increased the specific activity by 15% and 13%, respectively (FIG. 7G). Next, the specific activities of phase II enzymes, glutathione S-transferase (GST) and reduced glutathione (GSH) were measured. […] Fisetin and analogue 3c (50 mg/kg) caused a decrease in specific activity of GSH by 34% and 7%, respectively (FIG. 7I). […] These analogues are therefore likely to be effective and safe phytochemicals.

H1299 cells = assay: Western blot of signalling, cell cycle and apoptosis markers; assay type: cell-based, human
Source text: (§3) Similarly, in H1299 cells analogue 3a induced a 11.7 to 14.9% cell death (FIG. 4D right) compared to 3.8% in control cells. Analogue 3c (FIG. 4E right) and analogue 3e (FIG. 4F right) induced cell death of 8.2 to 15.1% and 8.8 to 16.6% respectively. For western blot experiments, two concentrations were used, i.e. the IC50 concentration and the next higher concentration utilized for cell proliferation for each cell line.
In H1299 cells (FIG. 4H), the higher concentrations of all three Fisetin analogues decreased the expression of pErk1/2. […]
The decreased expression of these proteins explains the decreased cell proliferation in both A549 and H1299 cells. […] Consistent with A549 data, all three the Fisetin analogues decreased the expression of anti-apoptotic protein Bcl-2 at both the concentrations. In H1299 cells, all the analogues increased cleaved Caspase-3 compared to control untreated cells. Thus, modulation of apoptosis regulatory proteins has caused apoptosis in both A549 and H1299 cells by the tested Fisetin analogues.

A549 cells = assay: as above; assay type: cell-based, human; settings: IC50 concentration and 20 μM
Source text: as §3
The expression of pro-oncogenic signalling molecules, which are involved in proliferation and survival of cancer cells, were evaluated.
The effect of the Fisetin analogues on molecular markers of apoptosis was assessed.

A549 = assay: Apoptosis assay; assay type: cell-based, human; settings: 48 h, control cells 4.7%
Source text: (§4) In A549, analogue 3a induced 8.2 and 11.2% apoptosis, analogue 3c induced 13.4 and 17.2% apoptosis, and analogue 3e induced 10.6 to 19.5% apoptosis compared to 4.7% in control cells (FIG. 6A).

H1299 cancer cells = assay: Apoptosis assay; assay type: cell-based, human; settings: 48 h
Source text: [Worded in the source for another cell line; used here, by the source, with some conditions changed.] as §4

[3] = system: H1299 human lung cancer cells; assay: Cell cycle distribution, propidium iodide flow cytometry; assay type: cell-based; settings: H1299, 48 h
Protocol: To examine the effect of Fisetin analogues on cell cycle regulation, cells were treated with different concentrations of Fisetin analogues (5, 10 & 20 μM) for 48 h, then stained with propidium iodide and subjected to flow cytometry. All three of the tested Fisetin analogues induced G2/M phase cell cycle arrest in A549 (FIGS. 5A-5C) and H1299 human lung cancer cells (FIGS. 5D-5F).

[4] = system: cytochrome P450 reductase (CytP450R); assay: Hepatotoxicity: specific activity of cytochrome P450 reductase; assay type: in vivo, swiss albino mice; settings: 50 mg/kg orally, two weeks
Protocol: as §1, §2

[5] = system: glutathione S-transferase (GST); assay: Hepatotoxicity: specific activity of glutathione S-transferase; assay type: in vivo, swiss albino mice; settings: liver of treated mice
Protocol: as §1, §2

[6] = system: A549 lung cancer cell line; assay: MTT cell proliferation assay, cytotoxicity after 48 h treatment; assay type: cell-based, human
Protocol: These 4′-substituted Fisetin analogues were initially screened for cytotoxicity against the A549 lung cancer cell line following a 48 h treatment period. Cytotoxicity IC50's were quantified using the MTT cell proliferation assay. The compounds were not found to interfere with the assay by causing an increase in background absorbance, no correlation was found between the lipophilicity and cytotoxicity at this position, and the substituent size was also not found to be important.

## O=c1c(O)c(-c2ccc(Br)cc2)oc2cc(O)ccc12 [analogue 3c, 4′-Bromo-3,7-dihydroxyflavone]
[1]; 25 mg/kg orally thrice weekly
  systemic toxicity during long-term application: did not show any systemic toxicity
  tumorigenic features in lung histology (nucleus size, cytoplasmic content, alveoli): reversal of the tumorigenic features
[1]; compared to the carcinogen treated group
  tumor incidence, histopathology of H&E stained serial sections: less
[1]; initiation group
  decrease of area or size of lesions: approximately 50%
[1]; mouse model
  efficacy in inhibiting B(a)P induced lung carcinogenesis, in words: efficacious; also recorded: more effective in reducing the number as well as the size of the lung tumor lesions as compared to the parent compound Fisetin
[1]; promotion group
  decrease of area or size of lesions: more than 50%
[1]; tumor initiation group
  reduction of total number of lesions: approximately 50%
[1]; tumor initiation phase, B(a)P-only group 100% incidence
  surface tumor lesion incidence, gross observation of lung: only one mouse showed surface tumor lesion out of five
[1]; versus B(a)P group
  tumor lesions per mouse and total number of lesions per group, in words: strongly reduced
[2]
  MDA formation (TBARS): No significant change
H1299 cells; IC50 concentration and 10 μM
  Phospho-Cdc-2 expression: higher concentration of analogue 3c and both concentrations of analogue 3e decreased the expression of phospho-Cdc-2
  Total Cdc-2: marginally affected by higher concentration
  expression of Bax: increased the expression of pro-apoptotic protein Bax
  expression of Cyclin B1: decreased in all treatments, except for the lower concentration of analogue 3c
  expression of phospho Akt: completely undetected
  expression of phospho-EGFR: decreased the expression of both phospho and total EGFR
  expression of total Akt: completely undetected
  expression of total EGFR: decreased the expression of both phospho and total EGFR
  expression of total Erk1/2: decreased the expression of total Erk1/2 significantly
H1299 cells; higher concentration (10 μM)
  expression of total Stat-3: decreased the expression of total Stat-3 at higher concentrations
A549 cells
  cleaved caspase-3: IC50 concentration of analogue 3c also increased cleaved caspase-3 to a significant amount; also recorded: higher concentration of analogue 3c and both the concentrations of analogue 3e increased the cleaved caspase-3 marginally
  expression of p21: increased the p21 expression significantly at higher concentration
  expression of phospho Cdc-2: IC50 concentration decreased the expression to some extent; also recorded: the higher concentrations decreased the phospho-Cdc-2 expression significantly
  expression of phospho-EGFR: minimally affected except for higher concentration of analogue 3c
  expression of phospho-Erk1/2: decreased the expression of phospho-Erk1/2 significantly at both the concentrations
  expression of pro-apoptotic protein Bax: increased the expression of Bax with much higher potential
  total Stat-3 expression: not affected
  total form of Akt: slightly downregulated
  total form of Erk1/2: not affected except for 3c in the higher concentration
A549; IC50 concentration
  apoptosis: 13.4%
A549; higher concentration 20 μM
  apoptosis: 17.2%
H1299 cancer cells; IC50 concentration
  apoptosis: 13.4%
H1299 cancer cells; higher concentration 10 μM
  apoptosis: 17.2%
[3]; 5 μM
  G2/M phase arrest: induced cell cycle arrest
[3]; 10 & 20 μM
  G2/M phase arrest: induced G2/M phase arrest in both the cell lines significantly
[4]
  increase in specific activity of CytP450R: 13%
[5]
  specific activities of GST compared to the control group: did not cause significant change
[6]; A549, MTT, 48 h
  cytotoxicity, in words: particularly active
[6]; A549 and/or H1299
  activity against lung cancer cell lines compared with the parent Fisetin: substantially more active
